Measurements as given in US20180168208A1 (priority 2014, published 2018).
Structures can show the parent of a compound that is named as a salt. Where two headings read alike, the source gives them in different places.

Target: T1, cat T1R1/T1R3 receptor (Felis catus, UniProt A0ABI7Z2I4)
T1 sequence (A0ABI7Z2I4 171-420): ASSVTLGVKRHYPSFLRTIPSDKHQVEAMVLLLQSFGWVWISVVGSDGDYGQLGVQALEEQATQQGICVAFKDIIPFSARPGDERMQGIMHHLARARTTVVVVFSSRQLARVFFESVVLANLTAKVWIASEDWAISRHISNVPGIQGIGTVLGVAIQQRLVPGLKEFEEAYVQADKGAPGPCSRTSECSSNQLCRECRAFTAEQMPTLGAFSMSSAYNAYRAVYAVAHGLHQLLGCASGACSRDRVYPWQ
T1 sequence (Q49KI5 25-865 E206Q/N523D/F654L partner): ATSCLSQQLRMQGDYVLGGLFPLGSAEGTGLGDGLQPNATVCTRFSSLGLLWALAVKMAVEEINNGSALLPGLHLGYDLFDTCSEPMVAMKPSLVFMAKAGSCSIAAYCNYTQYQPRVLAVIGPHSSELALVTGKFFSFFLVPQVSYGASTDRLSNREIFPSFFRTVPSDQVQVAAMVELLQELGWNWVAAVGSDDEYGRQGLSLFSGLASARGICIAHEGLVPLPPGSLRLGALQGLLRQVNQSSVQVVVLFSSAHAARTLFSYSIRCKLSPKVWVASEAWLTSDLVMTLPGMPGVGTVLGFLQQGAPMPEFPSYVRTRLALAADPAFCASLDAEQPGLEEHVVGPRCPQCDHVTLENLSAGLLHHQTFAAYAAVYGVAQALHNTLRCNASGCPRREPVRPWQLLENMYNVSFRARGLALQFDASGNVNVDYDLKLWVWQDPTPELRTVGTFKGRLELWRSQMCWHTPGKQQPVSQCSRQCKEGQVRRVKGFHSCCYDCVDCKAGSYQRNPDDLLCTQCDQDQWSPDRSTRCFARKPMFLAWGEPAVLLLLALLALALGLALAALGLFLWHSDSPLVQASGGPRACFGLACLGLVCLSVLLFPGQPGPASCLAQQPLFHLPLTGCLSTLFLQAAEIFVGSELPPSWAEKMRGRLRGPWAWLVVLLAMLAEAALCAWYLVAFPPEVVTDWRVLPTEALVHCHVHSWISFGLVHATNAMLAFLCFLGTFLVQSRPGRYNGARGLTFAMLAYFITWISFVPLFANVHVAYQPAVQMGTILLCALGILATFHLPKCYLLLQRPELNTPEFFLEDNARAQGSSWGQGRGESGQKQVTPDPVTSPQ
Experiment: cell-based
Details: for function as activators of T1R1/T1R3 (in words): in the presence of alanine
Description: HEK293 cells that stably express T1R3 and inducibly express T1R1 were exposed to nucleotide derivatives alone or in combination with one or more amino acids and/or one or more nucleotides to activate the umami receptor. Activation of the T1R1/T1R3 receptor was detected by a change in intracellular calcium levels using a calcium sensitive fluorescent dye and/or a luminescent reporter system. Cells that express T1R3 but not T1R1 were used as a control. A FLIPR® Tetra or a FlexStation® 3 was used for data capture.

[1] = threshold amount that results in activation of T1R1/T1R3, 20 mM alanine

| SMILES | Activity | Threshold [mM] | Max resp. (ΔF/F) | Max. resp. % of IMP | also measured |
| --- | --- | --- | --- | --- | --- |
| Nc1ncnc2c1ncn2[C@H]1C[C@H](O)[C@@H](COP(=O)(O)O)O1 [2′-Deoxyadenosine 5′-monophosphate] | active | 0.035 |  |  | EC50: 140 µM |
| Nc1ncnc2c1ncn2[C@H]1C[C@H](OP(=O)(O)O)[C@@H](COP(=O)(O)O)O1 [2′-Deoxyadenosine-3′,5′-O-bisphosphate] | active |  |  |  |  |
| Nc1ncnc2c1ncn2C1CC(O)C(COP(O)(O)=S)O1 (stereo not shown) [2′-Deoxyadenosine-5′-O-monophosphorothioate] | active | 0.015 |  |  |  |
| Nc1nc2c(ncn2C2CC(OP(=O)(O)O)C(COP(=O)(O)O)O2)c(=O)[nH]1 (stereo not shown) [2′-Deoxyguanosine-3′,5′-O-bisphosphate] | active | 0.005 | 1.8925 ΔF/F | 152.3 % of IMP | function as activators of T1R1/T1R3 (in words): activators of T1R1/T1R3 |
| Nc1nc2c(ncn2C2CC(O)C(COP(O)(O)=S)O2)c(=O)[nH]1 (stereo not shown) [2′-Deoxyguanosine-5′-O-monophosphorothioate] | active | 0.0025 | 1.0775 ΔF/F | 86.7 % of IMP | function as activators of T1R1/T1R3 (in words): activators of T1R1/T1R3 |
| Nc1nc2c(ncn2[C@H]2C[C@H](O)[C@@H](COP(O)(O)=S)O2)c(=O)[nH]1 [2′-Deoxyguanosine-5′-O-monophosphorothioate] | active | 0.005 |  |  | function as activators of T1R1/T1R3 (in words): activators of T1R1/T1R3 |
| O=c1[nH]cnc2c1ncn2C1CC(O)C(COP(O)(O)=S)O1 (stereo not shown) [2′-Deoxyinosine-5′-O-monophosphorothioate] | active | 0.025 |  |  |  |
| O=c1ccn([C@H]2C[C@H](O)[C@@H](COP(O)(O)=S)O2)c(=O)[nH]1 [2′-Deoxyuridine-5′-O-monophosphorothioate (5′-dUMPS)] |  | 5.000 | 0.4200 ΔF/F | 43.4 % of IMP |  |
| O=c1ccn([C@H]2C[C@H](O)[C@@H](COP(O)(O)=S)O2)c(=O)[nH]1 [2′-Deoxyuridine-5′-O-monophosphorothioate] |  |  |  |  | EC50: > 30000 µM |
| O=c1ccn([C@H]2C[C@H](O)[C@@H](COP(O)(O)=S)O2)c(=O)[nH]1 [2′-Deoxyuridine-5′-O-monophosphosphorothioate (5′-dUMPS)] | active | 5.000 | 0.4200 ΔF/F | 43.4 % of IMP |  |
| NC(=O)c1ncn(C2OC(COP(=O)(O)O)C(O)C2O)c1N [5-Aminoimidazole-4-carboxamide-1-β-D-ribofuranosyl 5′-monophosphate] | active | 0.200 |  |  | EC50: > 1000 µM |
| O=P(O)(O)OCC1OC(n2cnc3c(Cl)ncnc32)C(O)C1O (stereo not shown) [6-Chloropurineriboside-5′-O-monophosphate] | active |  | 1.5325 ΔF/F | 123.3 % of IMP |  |
| Nc1nc2c(ncn2[C@@H]2O[C@H](COP(=O)(O)O)[C@@H](O)[C@H]2O)c(=S)[nH]1 [6-Thiogaunosine-5′-O-monophosphate] |  |  | 1.3614 ΔF/F | 140.6 % of IMP |  |
| Nc1nc2c(ncn2[C@@H]2O[C@H](COP(=O)(O)OP(=O)(O)O)[C@@H](O)[C@H]2O)c(=S)[nH]1 [6-Thioguanosine-5′-O-disphosphate] |  | 0.03 |  |  |  |
| Nc1nc2c(ncn2[C@@H]2O[C@H](COP(=O)(O)O)[C@@H](O)[C@H]2O)c(=S)[nH]1 [6-Thioguanosine-5′-O-monophosphate] | active |  |  |  |  |
| O=P(O)(O)OCC1OC(n2cnc3c(Cl)ncnc32)C(O)C1O (stereo not shown) [6-chloropurineriboside-5′-O-monophosphate] |  | 0.0005 |  |  | EC50: 2 µM; function as activators of T1R1/T1R3 (in words): activators of the T1R1/T1R3 receptor |

| SMILES | Activity | Threshold [mM] | Max resp. (ΔF/F) | Max. resp. % of IMP | also measured |
| --- | --- | --- | --- | --- | --- |
| Nc1nc2c(ncn2[C@@H]2O[C@H](COP(=O)(O)O)[C@@H](O)[C@H]2O)c(=S)[nH]1 [6-thioguanosine-5′-O-monophosphate] |  | 0.0002 |  |  | EC50: 0.9 µM; function as activators of T1R1/T1R3 (in words): activators of T1R1/T1R3 |
| Nc1nc2c(nc(Br)n2[C@@H]2O[C@H](COP(=O)(O)O)[C@@H](O)[C@H]2O)c(=O)[nH]1 [8-Bromoguanosine-5′-O-monophosphate] | active | 1 | 0.375 ΔF/F | 30.2 % of IMP |  |
| Nc1ncnc2c1nc(Cl)n2[C@@H]1O[C@H](COP(=O)(O)O)C(O)C1O (stereo partly shown) [8-Chloroadenosine-5′-O-monophosphate] |  | 0.2 | 0.79 ΔF/F | 63.6 % of IMP | Activity (+Alanine (20 mM)): active |
| Nc1ncnc2c1ncn2C1OC(COP(=O)(O)O)C(OP(=O)(O)O)C1O (stereo not shown) [Adenosine 3′,5′-diphosphate sodium salt, adenosine 3′, 5′ diphosphate sodium salt] | active | 0.00025 |  |  |  |
| Nc1ncnc2c1ncn2C1OC(COP(=O)(O)OS(=O)(=O)O)C(O)C1O (stereo not shown) [Adenosine 5′-phosphosulfate sodium salt, Adenosine 5′-phosphosulfate] |  | 0.008 |  |  |  |
| Nc1ncnc2c1ncn2[C@@H]1O[C@H](COP(O)(O)=S)[C@@H](O)[C@H]1O [Adenosine-5′-O-monophosphorothioate] | active | 0.003 |  |  | EC50: 11 µM |
| Nc1nc2c(ncn2[C@@H]2O[C@H](COP(=O)(O)OP(=O)(O)O)[C@@H](O)[C@H]2O)c(=O)[nH]1 [Guanosine 5′-diphosphate sodium salt, Guanosine 5′-diphosphate] | active | 0.050 |  |  | EC50: 200 µM |
| Nc1nc2c(ncn2C2OC(COP(=O)(O)N3CCOCC3)C(O)C2O)c(=O)[nH]1 (stereo not shown) [Guanosine 5′-monophosphomorpholidate 4-morpholine-N,N′-dicyclohexylcarboxamidine salt] |  |  |  |  | Activity (+Alanine (20 mM)): active; Max. resp. % of IMP (maximum response in relation to the response with IMP, 20 mM alanine): 52.9 % of IMP; Max resp. (ΔF/F) (maximum response of the receptor, 20 mM alanine): 0.5121 ΔF/F; Threshold [1]: 0.325 mM |
| Nc1nc2c(ncn2[C@@H]2O[C@H](COP(=O)(O)OP(=O)(O)OP(=O)(O)O)[C@@H](O)[C@H]2O)c(=O)[nH]1 [Guanosine 5′-triphosphate] | active | 0.175 | 1.8075 ΔF/F | 145.5 % of IMP | EC50: 700 µM |
| Nc1nc2c(ncn2[C@@H]2O[C@H](COP(O)(O)=S)[C@@H](O)[C@H]2O)c(=O)[nH]1 [Guanosine-5′-monophosphorothioate] | active | 0.0025 | 1.29 ΔF/F | 103.8 % of IMP | EC50: 10 µM; function as activators of T1R1/T1R3 (in words): activators of T1R1/T1R3 |
| O=c1[nH]cnc2c1ncn2C1OC(COP(=O)(O)OP(=O)(O)O)C(O)C1O (stereo not shown) [Inosine 5′-diphosphate (IDP) sodium salt, inosine 5′-diphosphate (IDP) sodium salt] | active |  | 0.3 ΔF/F | 33.3 % of IMP | Threshold [1]: 0.1625 mM |
| CNc1ncnc2c1ncn2[C@H]1C[C@H](OP(=O)(O)O)[C@@H](COP(=O)(O)O)O1 [MRS 2179 ammonium salt hydrate, 2′-Deoxy-N^6-methyl adenosine 3,5′-diphosphate diammonium salt] | active |  |  |  |  |
| O=P(O)(O)OC[C@H]1O[C@@H](n2cnc3c(NC4CCCC4)ncnc32)[C@H](O)[C@@H]1O [N6-Cyclopentyladenosine-5′-O-monophosphate] | active | 0.013 |  |  |  |
| CNc1ncnc2c1ncn2[C@@H]1O[C@H](COP(=O)(O)O)[C@@H](O)[C@H]1O [N6-Methyladenosine 5′-monophosphate] |  | 0.020 |  |  | Activity (+Alanine (20 mM)): active |
| O=P(O)(O)OC[C@H]1O[C@@H](n2cnc3cncnc32)[C@H](O)[C@@H]1O [Purine riboside-5′-O-monophosphate, reference compound] | active | 0.005 |  |  |  |
